Experimental data reported in patent publication US20080319038A1, “PREVENTATIVE OR THERAPEUTIC AGENT FOR ACUTE RENAL FAILURE” (priority 2005, published 2008).

Legend:
[1] = system: mice with LPS-induced inflammation; test: Effect of Fidarestat administration on renal damage in mice with lipopolysaccharide (LPS)-induced inflammation; type: in vivo, CD-1 mice
Protocol: Eight-week-old male CD-1 mice were used in the experiment. The mice were divided into 3 groups of normal control group (drug and LPS non-administration group), LPS control group (drug non-administration/LPS administration group), and LPS/Fidarestat administration group (Fidarestat and LPS administration group). First, 10 mg/kg of Fidarestat (which was prepared with a solubilizing agent solution) was administered into the caudal vein of the Fidarestat administration group and the solubilizing agent solution was administered into the caudal vein of the drug non-administration group. After 5 minutes, Lipopolysaccharides (LPS: Escherichia coli; 0111: B4, Sigma) was prepared with a physiological salt solution, which was administered to the LPS administration group intraperitoneally at a concentration of 2 mg/kg and a physiological salt solution was administered to the LPS non-administration group intraperitoneally. After 24 hours, each of the groups of mice was anesthetized by ether inhalation and blood was collected from the abdominal vein using a heparinized syringe. Then, centrifugation was carried out under the following conditions: at 4 degree C., at 1,000×g, for 10 min. Plasma was then obtained. Blood urea nitrogen (BUN) and creatinine were measured using an autoanalyzer (Hitachi). In this regard, as a solubilizing agent, NMDG (N-methyl-D-glucamine) was used.

[2] = system: ischemia reperfusion mice; test: Effect of Fidarestat administration on renal damage in ischemia reperfusion mice; type: in vivo, C57BL/6 mice; settings: for BUN / CK / Creatinine: blood, 3 h ischemia, 24 h reperfusion, Average ± SEM, n = 4
Protocol: Sixteen- to twenty-week-old male C57BL/6 mice (Wild) were used in the experiment. The mice were divided into 4 groups, which were designated as sham-operation group (normal control group), ischemia operation group (ischemia reperfusion control group), ischemia operation+Fidarestat 40 mg/kg administration group (ischemia reperfusion/Fidarestat 40 mg/kg administration group), and ischemia operation+Fidarestat 150 mg/kg administration group (ischemia reperfusion/Fidarestat 150 mg/kg administration group), respectively. 40 or 150 mg/kg/day of Fidarestat was mixed in their diet and administered to the ischemia operation+Fidarestat administration groups 7 days before ischemia operation. Plantar blood flow in these mice was measured with a laser blood flow meter under isoflurane anesthesia, and then the abdomen was incised. The abdominal aorta was exposed under a stereoscopic microscope and clipping was carried out at the portion distal to the renal artery bifurcation. Further, the right common iliac artery was also clipped and the right femoral artery was finally clipped. Thereafter, the abdomen was closed. The time of ischemia onset was set to the time when the femoral artery was clipped. From the time of ischemia onset, plantar blood flow was measured with a laser blood flow meter and the ischemia was confirmed. The clipping was released in order of the right femoral artery, right common iliac artery, and abdominal aorta in 3 hours from the ischemia onset and reperfusion was performed. At the time, the reperfusion status was confirmed with the laser blood flow meter. The reperfusion time was set to the time when the clipping of the aorta was released. The reperfusion was performed for 24 hours and the general condition was observed. Thereafter, heart blood was collected from the right atrium under isoflurane anesthesia. The collected heart blood was mixed with heparin and centrifuged at 3000 g. Then, the supernatant was collected therefrom, which was frozen for preservation at −80 degrees C. to use in a serologic test for CK, BUN, creatinine, and the like.

[3] = plasma, Fidarestat 10 mg/kg caudal vein 5 min before LPS 2 mg/kg i.p., 24 hours after LPS, Average ± SEM, n = 7
[4] = Fidarestat 40 mg/kg/day in diet from 7 days before ischemia
[5] = Fidarestat 150 mg/kg/day in diet from 7 days before ischemia

**Q.** How did the “effect on renal function impairment” value ([1]; model with LPS-induced inflammation, Fidarestat 10 mg/kg i.v.) turn out when NC(=O)[C@@H]1C[C@]2(NC(=O)NC2=O)c2cc(F)ccc2O1 [Fidarestat, (2S,4S)-6-fluoro-2′,5′-dioxospiro[chroman-4,4′-imidazolidine]-2-carboxamide] was run?
**A.** effective

**Q.** And the BUN [1, 3]?
**A.** 24.3 ± 2.2 mg/dL

**Q.** What about the Creatinine [1, 3] of the same molecule?
**A.** 0.067 ± 0.003 mg/dL

**Q.** What about the BUN [2, 4] of the same molecule?
**A.** 40 ± 11 mg/dL

**Q.** And the CK [2, 4]?
**A.** 6978 ± 4904 IU/L

**Q.** And the Creatinine [2, 4]?
**A.** 0.12 ± 0.01 mg/dL

**Q.** And the BUN [2, 5]?
**A.** 31 ± 1 mg/dL

**Q.** And the CK [2, 5]?
**A.** 2348 ± 530 IU/L

**Q.** And the Creatinine [2, 5]?
**A.** 0.10 ± 0.01 mg/dL

**Q.** What about the “onset of acute renal failure” value ([2]; ischemia reperfusion/Fidarestat 40 mg/kg and 150 mg/kg administration groups) of the same molecule?
**A.** completely suppressed
